Like-named read-outs stand apart in the source and are kept apart here.
Experiments:
[1] = tested on: Japanese patients with grade (G) 1/G2 NET; test: Post hoc analysis of tumor growth rate (TGR); format: in vivo, human; set-up: key to TGR (0-Last): % change in tumor volume per month; conditions: for TGR (0-Last): mean ± SD
Protocol: The descriptive statistics of tumor growth rate (TGR) were calculated in a post hoc analysis of the FAS. The TGR estimates the change of the tumor volume during 1 month. This value incorporates the intervals between imaging tests, thus allowing a quantitative and dynamic evaluation of the tumor response. Scatter plots were prepared, and a subgroup analysis was conducted. To calculate TGR, results evaluated by the investigator were used before baseline, and results determined via central evaluation were used after baseline. There were not enough events for multivariate analysis, therefore univariate analysis based on the Cox proportional hazard model was implemented to assess prognostic factors.
The TGR per unit time was calculated in the post-hoc analysis. From past to 0 (baseline), the results of the investigator’s evaluation were used for tumor lesions, after baseline, the results of a central evaluation were used for the tumor lesions. The TGR (mean ± SD) before the first injection was 25.3 ± 35.7%, and the TGR from baseline to the last value was 5.4 ± 10.7% (Fig. 4).

[2] = Pharmacokinetics: serum lanreotide concentration (radioimmunoassay); format: in vivo, human
Protocol: Full analysis set (FAS) and CLARINET-like FAS which was satisfied eligibility criteria of the CLARINET study were used for efficacy analysis. Safety analysis set which included patients who had received the study drug at least once was used for safety analysis. Per protocol set (PPS) was used for pharmacokinetic analysis.
Regarding pharmacokinetics evaluations, serum lanreotide concentrations were determined on the day of first administration (before and 2 and 4 h after administration of the study drug) and at 4, 8, 12, 16, and 20 (before and 2 and 4 h after administration of the study drug), 24, 36, and 48 weeks after the start of administration (or at the time of discontinuation). Serum lanreotide concentrations were centrally determined using a validated radioimmunoassay (RIA; Kymos Pharma Services S.L., Barcelona, Spain).

[3] = tested on: non-functional enteropancreatic NET; conditions: CLARINET study, cited from earlier work
Excerpt: Tumors occurring in nerves or endocrine cells anywhere in the body can be classified as neuroendocrine neoplasm (NEN). NEN is classified into poorly-differentiated neuroendocrine carcinoma and well-differentiated neuroendocrine tumor (NET). NET is a rare disease and tends to proliferate slowly. According to an epidemiological survey conducted in Japan in 2010, the incidence of new pancreatic and gastrointestinal NET was 4.78 per 100,000 people (estimated number of patients treated: 11,467). The incidences of NET other than pancreatic and gastrointestinal NET remain unknown in Japan, wher ... || Furthermore, in the CLARINET study, a median PFS was not reached at 96 weeks (24 months), in contrast to the median PFS of 36.3 weeks (based on the RECIST ver. 1.1) in the present study. This difference is attributed to differences in baseline disease characteristics of the patient and tumor characteristics. The percentages of patients with PD at baseline and prior treatment for NET were 39.3% (11/28 patients) and 78.6% (22/28 patients), respectively, in the present, and only 4.0% (4/101 patients) and 15.8% (16/101 patients), respectively, in the CLARINET study. The current Japanese stud ...

[4] = CLARINET study; cited from earlier work
Excerpt: No interracial differences were observed regarding drug concentrations in the blood. This inter-study difference in the number of treatment required to achieve steady state is attributed to the associated with the low num ...

[5] = tested on: Japanese patients with grade (G) 1/G2 NET; test: Quality of life, EORTC QLQ-C30 (ver. 3.0); format: in vivo, human; conditions: EORTC QLQ-C30, individual terms
Excerpt: The primary endpoint was the clinical benefit rate (CBR) at 24 weeks after the first injection, which served to indicate and confirm the anti-tumor effects of lanreotide. The CBR was defined as the percentage of patients in the analysis set who achieved a complete response or partial response (PR) as the best overall response, or those who maintained stable disease (SD) over 24 weeks after the first injection by central review. Secondary efficacy endpoints were progression-free survival (PFS), overall survival (OS), objective response rate (ORR), and the percent change from baseline in the sum of the diameters of target lesion from baseline. […] Regarding tumor lesion imaging ≥4 weeks before the baseline, the investigators evaluated computed tomography (CT) or magnetic resonance imaging (MRI) data based on the RECIST (ver. 1.1). To evaluate anti-tumor effects after baseline, CT or MRI data were evaluated centrally by an independent third party based on the RECIST (ver. 1.1). During the study period, images of each patient were determined using the same method (CT or MRI), according to the standardized procedure at each site. […]
In the primary analysis, the CBR point estimate at 24 weeks after the first injection and an exact F distribution-based 95% confidence interval (CI) were calculated. […] The ORRs at 24, 48, and 60 weeks after the first injection were also calculated. […]

Structure (SMILES): CC(C)[C@@H]1NC(=O)[C@H](CCCCN)NC(=O)[C@@H](Cc2c[nH]c3ccccc23)NC(=O)[C@H](Cc2ccc(O)cc2)NC(=O)[C@@H](NC(=O)[C@H](N)Cc2ccc3ccccc3c2)CSSC[C@@H](C(=O)N[C@H](C(N)=O)[C@@H](C)O)NC1=O [lanreotide]
- TGR from baseline to the last value (mean ± SD) ([1]; FAS n=28, post hoc, TGR before the first injection 25.3 ± 35.7%): 5.4 ± 10.7%
- TGR (0-Last) ([1]; FAS subgroup Age (years) >65, N=12): 5.44 ± 10.34
- TGR (0-Last) ([1]; FAS subgroup Age (years) ≤65, N=16): 5.41 ± 11.34
- TGR (0-Last) ([1]; FAS subgroup Baseline TGR (%/month) <10, N=13): 3.41 ± 9.43
- TGR (0-Last) ([1]; FAS subgroup Baseline TGR (%/month) ≥10, N=15): 7.17 ± 11.76
- TGR (0-Last) ([1]; FAS subgroup Grade of tumor Grade 1, N=9): 1.65 ± 5.95
- TGR (0-Last) ([1]; FAS subgroup Grade of tumor Grade 2, N=19): 7.21 ± 12.09
- TGR (0-Last) ([1]; FAS subgroup Hepatic tumor load (%) >10 and ≤25, N=6): 8.10 ± 15.47
- TGR (0-Last) ([1]; FAS subgroup Hepatic tumor load (%) >25 and ≤50, N=3): 9.49 ± 9.98
- TGR (0-Last) ([1]; FAS subgroup Hepatic tumor load (%) ≥0 and ≤10, N=18): 4.09 ± 9.60
- TGR (0-Last) ([1]; FAS subgroup Ki67 index (%) >2 and ≤5, N=8): 5.55 ± 8.50
- TGR (0-Last) ([1]; FAS subgroup Ki67 index (%) >5 and <10, N=9): 4.63 ± 11.81
- TGR (0-Last) ([1]; FAS subgroup Ki67 index (%) ≤ 2, N=8): 1.82 ± 6.34
- TGR (0-Last) ([1]; FAS subgroup Sex Female, N=9): 2.71 ± 10.00
- TGR (0-Last) ([1]; FAS subgroup Sex Male, N=19): 6.71 ± 11.07
- TGR (0-Last) ([1]; FAS subgroup primary tumor site Hindgut, N=8): 16.35 ± 11.02
- TGR (0-Last) ([1]; FAS subgroup primary tumor site Other/ Unknown, N=5): 4.23 ± 6.12
- TGR (0-Last) ([1]; FAS subgroup primary tumor site Pancreas, N=12): 0.43 ± 7.83
- TGR (0-Last) ([1]; FAS subgroup prior treatment for NET Absent, N=6): 0.69 ± 5.09
- TGR (0-Last) ([1]; FAS subgroup prior treatment for NET Present, N=22): 6.72 ± 11.55
- TGR (0-Last) ([1]; FAS subgroup progressive disease at baseline Absent, N=17): 1.99 ± 6.50
- TGR (0-Last) ([1]; FAS subgroup progressive disease at baseline Present, N=11): 10.74 ± 13.84
- patients with decrease in TGR at the last value ([1]; population with PD at baseline, 10 of 11 patients): 90.9%
- number of doses to near-steady state ([2]; 120 mg every 4 weeks): 3 doses
- Tmax ([2]; human, in vivo, injection at 20 weeks after the first injection, read-out: median time to reach the maximum serum concentration): 3.8 h
- Tmax ([2]; human, in vivo, serum, PPS 28 patients, read-out: time of Cmax after the first injection (median)): 3.9 h
- Cmax ([2]; human, in vivo, 120 mg every 4 weeks, PPS 28 patients, mean ± SD, read-out: Cmax at 20 weeks after the first injection): 24.2 ± 20.2 ng/mL
- level at 672 h ([2]; human, serum, sc, 120 mg, PPS 28 patients, read-out: serum concentration at 4 weeks after the first injection, before injection (trough, mean ± SD)): 3.1 ± 1.4 ng/mL
- level at 4032 h ([2]; human, serum, sc, 120 mg every 4 weeks, PPS 28 patients, mean ± SD, read-out: trough concentration at 24 weeks after the first injection): 6.1 ± 3.3 ng/mL
- Cmax after the first injection (mean ± SD) ([2]; serum, 120 mg deep s.c., PPS 28 patients, RIA): 20.2 ± 18.2 ng/mL
- median PFS ([3]; up to 96 weeks (24 months), placebo 18.0 months): not reached
- hazard ratio for PFS vs placebo ([3]; 95% CI 0.30-0.73, P < 0.001): 0.47
- number of injections to steady state [4]: 6 injections
- QOL transformed scores versus baseline [5]: did not differ significantly

— PMC5502055, “Phase II study of lanreotide autogel in Japanese patients with unresectable or metastatic well-differentiated neuroendocrine tumors” (Investigational New Drugs, 2017)
